Assay results: US20060063187A1, “Modulation of XBP-1 activity for treatment of metabolic disorders” (priority 2004, published 2006)

Assays:
Fao liver cells = assay: ER stress and insulin receptor signaling in Fao liver cells (immunoprecipitation / immunoblotting); assay type: cell-based, rat; details: for serine (Ser307) phosphorylation of IRS-1: Fao cells treated with ER stress inducer (tunicamycin 5 μg/ml 3 h; thapsigargin 300 nM)
Description: (§1) FIG. 2 depicts that the induction of ER stress impairs insulin action through JNK mediated phosphorylation of IRS-1. (A) ER stress was induced in Fao liver cells by a 3-hour treatment with 5 μg/ml tunicamycin (Tun). Cells were subsequently stimulated with insulin (Ins). IRS-1 tyrosine and serine (Ser307) phosphorylation, Akt phosphorylation (Ser473), insulin receptor (IR) tyrosine phosphorylation, and their total protein levels were examined using either immunoprecipitation (IP) followed by immunoblotting (IB) or direct immunoblotting. (B) Quantitation of IRS-1 (tyrosine and Ser307), Akt (Ser473), and IR (tyrosine) phosphorylation under the experimental conditions described in (A) with normalization to protein levels for each molecule. (C) Inhibition of ER stress-induced (300 nM thapsigargin for 4 hours) Ser307 phosphorylation of IRS-1 by JNK-1 inhibitor, SP600125 (JNKi, 25 μM). (D) Quantitation of IRS-1 Ser307 phosphorylation under conditions described in (C). (E) Reversal of ER stress-induced inhibition of insulin-stimulated tyrosine phosphorylation (pY) of IRS-1 by a JNK inhibitor. (F) Quantitation of insulin-induced IRS-1 tyrosine phosphorylation levels described in (E). (G) JNK activity, Ser307 phosphorylation of IRS-1, and total IRS-1 levels at indicated times following tunicamycin treatment (Tun, 10 μg/ml for I hour) in IRE-1α^+/+ and IRE-1α^−/− fibroblasts. (H) Insulin-stimulated IRS-1 tyrosine phosphorylation and total IRS-1 levels following tunicamycin treatment (Tun, 10 μg/ml for 1 hour) in IRE-1α^+/+ and IRE-1α^−/− fibroblasts. […] All graphs show mean ±SEM from at least 2 independent experiments and statistical significance from the controls is indicated by * with p<0.005.
FIG. 8 depicts inhibition of insulin receptor signaling by thapsigargin-induced ER stress and the role of Ca^+2 levels in IRS-1 serine phosphorylation. (A) ER stress was induced in Fao cells by 1 hour treatment with 300 nM thapsigargin (Thap), and cells were subsequently stimulated with insulin (Ins). IRS-1 tyrosine phosphorylation (pY) and serine phosphorylation (pSer307), insulin receptor (IR) tyrosine phosphorylation, and total protein levels were examined using either immunoprecipitation (UP) followed by immunoblotting (IB) or direct immunobloting. (B) Fao cells were treated with sulindac sulfide (SS: 0, 7.5, 30, and 60 μM) for 45 minutes with or without an additional hour of exposure to 300 nM thapsigargin (Thap). IRS-1 serine phosphorylation and total IRS-1 protein levels were examined as described above.
Cells: FaO cells were cultured with RPMI 1640 (Gibco) containing 10% fetal bovine serum (FBS). At 70-80% confluency, cells were serum depleted for 12 hours before starting the experiments. Reagents including tunicamycin, thapsigargin, and JNK inhibitors were gently added to the culture dishes in the incubator to prevent any environmental stress. JNK inhibitors were added 1 hour before tunicamycine/thapsigargin treatment. The XBP-1^−/− MEF cells, IRE-1α^−/− MEF cells (provided by Dr. David Ron (New York University School of Medicine) and their wild type (WT) controls were cultured in Dulbecco's Modified Eagle Medium (DMEM) (Gibco) containing 10% FBS. Experiments in MEF cells were carried out similar to those in FaO cells except after 6 hours of serum depletion.
(§2) Protein Extracts From Cells: At the end of each treatment, cells were immediately frozen in liquid nitrogen and kept at −80° C. Protein extracts were prepared with a lysis buffer, containing 25 mM Tris-HCl (pH7.4), 2 mM Na3VO4, 10 mM NaF, 10 mM Na4P2O7, 1 mM EGTA, 1 mM EDTA, 1% NP40, 5 μg/ml leupeptin, 5 μg/ml aprotinin, 10 nM okadaic acid, and 1 mM PMSF. Immunoprecipitations and immunoblotting experiments were performed with 750 pg and 75 ug total protein, respectively.

IRE-1α−/− fibroblasts = assay: ER stress-induced JNK activation and IRS-1 phosphorylation in IRE-1α-deficient fibroblasts; assay type: cell-based, mouse; details: tunicamycin 10 μg/ml for 1 hour
Description: FIG. 2 depicts that the induction of ER stress impairs insulin action through JNK mediated phosphorylation of IRS-1. (A) ER stress was induced in Fao liver cells by a 3-hour treatment with 5 μg/ml tunicamycin (Tun). Cells were subsequently stimulated with insulin (Ins). IRS-1 tyrosine and serine (Ser307) phosphorylation, Akt phosphorylation (Ser473), insulin receptor (IR) tyrosine phosphorylation, and their total protein levels were examined using either immunoprecipitation (IP) followed by immunoblotting (IB) or direct immunoblotting. (B) Quantitation of IRS-1 (tyrosine and Ser307), Akt (Ser473), and IR (tyrosine) phosphorylation under the experimental conditions described in (A) with normalization to protein levels for each molecule. (C) Inhibition of ER stress-induced (300 nM thapsigargin for 4 hours) Ser307 phosphorylation of IRS-1 by JNK-1 inhibitor, SP600125 (JNKi, 25 μM). (D) Quantitation of IRS-1 Ser307 phosphorylation under conditions described in (C). (E) Reversal of ER stress-induced inhibition of insulin-stimulated tyrosine phosphorylation (pY) of IRS-1 by a JNK inhibitor. (F) Quantitation of insulin-induced IRS-1 tyrosine phosphorylation levels described in (E). (G) JNK activity, Ser307 phosphorylation of IRS-1, and total IRS-1 levels at indicated times following tunicamycin treatment (Tun, 10 μg/ml for I hour) in IRE-1α^+/+ and IRE-1α^−/− fibroblasts. […]

[1] = test system: mouse embryonic fibroblasts (MEF) without exogenous XBP-1s expression; assay: ER stress response in MEF-tet-off fibroblasts without exogenous XBP-1s expression; assay type: cell-based; details: tunicamycin 2 μg/ml, fibroblasts without exogenous XBP-1s (+Dox)
From the text: FIG. 3 depicts that alteration of the ER stress response by manipulation of XBP-1 levels leads to alterations in insulin receptor signaling. ER stress responses in XBP-1s overexpressing cells, XBP-1^−/− cells, and their controls. (A) Induction of XBP-1s expression upon removal of doxycycline in mouse embryonic fibroblasts (MEF). (B) Southern blot analysis of XBP-1^−/− MEF cells and their WT controls for the wild type (9.4 kb) and targeted (6.5 kb) alleles. (C) PERK phosphorylation (p-PERK) and JNK activity in the XBP-1s overexpressing cells and their control cells (−Dox and +Dox, respectively) upon tunicamycin treatment (Tun, 2 μg/ml). (D) PERK phosphorylation and JNK activity upon low dose tunicamycin treatment (Tun, 0.5 μg/ml) in XBP-1^−/−-MEF cells and their WT controls. (E) IRS-1 Ser307 phosphorylation upon tunicamycin treatment (Tun, 2 μg/ml) in the XBP-1s overexpressingcells and the control cells (−Dox and +Dox, respectively), detected using immunoprecipitation (IP) of IRS-1 followed by immunoblotting (IB) with an IRS-1 phosphoserine 307-specific antibody. […] The ratio of IRS-1 tyrosine phosphorylation to total IRS-1 level was summarized from independent experiments and was presented in the graph. (G) IRS-1 Ser307 phosphorylation upon tunicamycin treatment (Tun, 0.5 μg/ml) in XBP-1^−/− cells and WT controls was detected as described in panel C. […] The ratio of IRS-1 tyrosine phosphorylation to total IRS-1 level was summarized from independent experiments and presented in the graph. All graphs show mean±SEM from at least 2 independent experiments and statistically significance from the controls is indicated by * with p<0.005.
Overexpression of XBPIs in MEFs: MEF-tet-off cells (Clontech) were cultured in DMEM with 100 μg/ml G418 and 1 μg/ml doxycycline. The MEF-tet-off cells express exogenous tTA (tetracycline-controlled transactivator) protein, which binds to TRE (tetracycline response element) and activates transcription only in the absence of tetracycline or doxycycline. The cDNA of the spliced form of XBP-1 was ligated into pTRE2hyg2 plasmid (Clontech). The MEF-tet-off cells were transfected with the TRE2hyg2-XBP-1s plasmid, followed by selection in the presence of […] hygromycine B. Individual clones of stable transfectants were isolated and doxycycline-dependent XBP-1s expression was confirmed by immunoblotting.
as §2, with “Immunoprecipitations and immunoblotting experiments were performed with 750 pg and 75 ug total protein, respectively.” left out

XBP-1−/− MEF cells = assay: ER stress response to low dose tunicamycin in XBP-1−/− MEF cells; assay type: cell-based, mouse
From the text: (§3) FIG. 3 depicts that alteration of the ER stress response by manipulation of XBP-1 levels leads to alterations in insulin receptor signaling. ER stress responses in XBP-1s overexpressing cells, XBP-1^−/− cells, and their controls. (A) Induction of XBP-1s expression upon removal of doxycycline in mouse embryonic fibroblasts (MEF). (B) Southern blot analysis of XBP-1^−/− MEF cells and their WT controls for the wild type (9.4 kb) and targeted (6.5 kb) alleles. (C) PERK phosphorylation (p-PERK) and JNK activity in the XBP-1s overexpressing cells and their control cells (−Dox and +Dox, respectively) upon tunicamycin treatment (Tun, 2 μg/ml). (D) PERK phosphorylation and JNK activity upon low dose tunicamycin treatment (Tun, 0.5 μg/ml) in XBP-1^−/−-MEF cells and their WT controls. (E) IRS-1 Ser307 phosphorylation upon tunicamycin treatment (Tun, 2 μg/ml) in the XBP-1s overexpressingcells and the control cells (−Dox and +Dox, respectively), detected using immunoprecipitation (IP) of IRS-1 followed by immunoblotting (IB) with an IRS-1 phosphoserine 307-specific antibody. […] The ratio of IRS-1 tyrosine phosphorylation to total IRS-1 level was summarized from independent experiments and was presented in the graph. (G) IRS-1 Ser307 phosphorylation upon tunicamycin treatment (Tun, 0.5 μg/ml) in XBP-1^−/− cells and WT controls was detected as described in panel C. […]

WT MEF cells = assay: ER stress response to low dose tunicamycin in WT MEF cells; assay type: cell-based, mouse; details: low dose of tunicamycin 0.5 μg/ml
From the text: as §3

[2] = test system: IRE-1α+/+ (WT) fibroblasts; assay: ER stress-induced JNK activation and IRS-1 phosphorylation in wild type fibroblasts; assay type: cell-based, mouse; details: tunicamycin 10 μg/ml for 1 hour
Description: as §1
Cells: FaO cells were cultured with RPMI 1640 (Gibco) containing 10% fetal bovine serum (FBS). At 70-80% confluency, cells were serum depleted for 12 hours before starting the experiments. Reagents including tunicamycin, thapsigargin, and JNK inhibitors were gently added to the culture dishes in the incubator to prevent any environmental stress. […]

Compound | thapsigargin-induced IRS-1 serine phosphorylation (Fao liver cells; sulindac sulfide 45 minutes, then additional hour of 300 nM thapsigargin) | Ser307 phosphorylation of IRS-1 (Fao liver cells; sulindac sulfide alone (0, 7.5, 30, 60 μM, 45 minutes)) | serine (Ser307) phosphorylation of IRS-1 (Fao liver cells) | insulin receptor signaling (Fao liver cells; Fao cells, thapsigargin 300 nM 1 h, then insulin) | insulin-stimulated tyrosine phosphorylation of IRS-1 (IRE-1α−/− fibroblasts; IRE-1α−/− cells, then insulin) | phosphorylation of IRS-1 at Ser307 (IRE-1α−/− fibroblasts; IRE-1α−/− fibroblasts) | JNK activation [1] | PERK phosphorylation [1] | peak of PERK phosphorylation [1] | start of PERK phosphorylation [1] | insulin-stimulated tyrosine phosphorylation of IRS-1 (Fao liver cells; Fao cells pretreated with ER stress inducer (tunicamycin 5 μg/ml 3 h; thapsigargin 300 nM 1 h), then insulin) | insulin-induced Akt phosphorylation (Ser473) (Fao liver cells; Fao cells, tunicamycin pretreatment 5 μg/ml 3 h, then insulin) | ER stress response (PERK phosphorylation, JNK activation) (XBP-1−/− MEF cells; low dose of tunicamycin 0.5 μg/ml, XBP-1−/− MEFs) | IRS-1 serine (Ser307) phosphorylation (XBP-1−/− MEF cells; tunicamycin 0.5 μg/ml, XBP-1−/− MEFs compared with XBP-1+/+ controls) | ER stress (PERK phosphorylation, JNK activation) (WT MEF cells) | insulin-stimulated tyrosine phosphorylation of IRS-1 ([2]; WT cells, then insulin) | JNK activation ([2]; WT fibroblasts) | phosphorylation of IRS-1 at Ser307 ([2]; WT fibroblasts)
CSc1ccc(/C=C2/C(C)=C(CC(=O)O)c3cc(F)ccc32)cc1 [sulindac sulfide] | did not interfere | no effect |  |  |  |  |  |  |  |  |  |  |  |  |  |  |  | 
C/C=C(/C)C(=O)O[C@H]1C(C)=C2[C@H]([C@@H]1OC(=O)CCCCCCC)[C@@](C)(OC(C)=O)C[C@H](OC(=O)CCC)[C@@]1(O)[C@H]2OC(=O)[C@@]1(C)O [thapsigargin] |  |  | increased | suppressed |  |  |  |  |  |  |  |  |  |  |  |  |  | 
tunicamycin |  |  | significant increase |  | no such effect was detected | not | rapid and robust activation | strong | 3 to 4 h | 30 min | significantly decreased | suppressed | strong ER stress response | strongly induced | failed to stimulate significant ER stress | inhibited | strong activation | stimulated
